Laboratory results taken from PMC7819857, “Identification of Inhibitors of Integrin Cytoplasmic Domain Interactions With Syk” (Frontiers in Immunology, 2021).

Experiments:
[1] = system: Syk phosphorylation in THP-1 cells; assay: Integrin α4β1-induced phosphorylation of Syk in THP-1 cells plated on CS-1; assay type: cell-based, human
Description: Compound loading of cells was facilitated by glycerol shock ([32], [33]). Methods were first optimized with the cell-impermeable fluorophore Sulfo-Cy5 (see Supplemental Figure S5 ). For analysis of compound inhibition of integrin signaling, 3 × 10^6 THP-1 cells were incubated in 200 ul serum-free RPMI containing 15% glycerol and ceftazidime (at indicated concentrations) for 1 h at 20°C. RPMI (3 ml, room temperature) containing ceftazidime (at indicated concentrations) was added to the cells to dilute the glycerol, and the cells were further incubated for 10 min (room temperature). Cells were then plated onto CS-1-BSA-coated plates for 15 min at 37°C, lysed in RIPA buffer (1% Triton X-100, 50 mM Tris-HCl pH 7.2, 150 mM NaCl, 0.25% NaDOC, 0.05% SDS, 2 mM PMSF, 1 mM NaF, 1 mM Na3VO4, and protease inhibitor cocktail) (AEBSF, Aprotinin, E-64, Bestatin, Leupeptin and Pepstatin; VWR Cat#97063-010), and the lysates were subjected to Western blot as described below.
Syk phosphorylation assays were performed by immobilizing vascular cell adhesion molecule-1 (VCAM)-1 (3 ug/ml), CS-1-BSA (10 ug/ml), or specific monoclonal antibodies (anti-FcγRI mAb 276426, anti-α4β1 mAb 19H8, anti-β2 mAb 76C3, anti-αvβ3 mAb LM609 all at 5 ug/ml) overnight at 4°C in Tris-HCl pH 7.5, 150 mM NaCl, in 6-well plates (non-tissue culture treated, Becton Dickenson, cat# BD351146). […] After electrophoresis, proteins were transferred to nitrocellulose for 1 h 100 V room temperature, blocked in 5% non-fat milk in TBS-T, and probed with the indicated primary antibody at 1:1,000 overnight at 4°C, followed by species-appropriate HRP secondary antibody (Southern Biotech) at 1:5,000 (30 min at room temperature), and detected using Pierce West Pico (Thermo Scientific cat# 34580). […]
Figure 4 Ceftazidime inhibition of integrin signaling. (A) Dose-response curves comparing ceftazidime antagonist activity against integrin β1A, β2, and β3 cytoplasmic domains binding to Syk as measured in AlphaScreen assays. […] Data are expressed as mean fluorescence (Fl520) ± the range from duplicate determinations. […]

GST-free Syk(6-370) = molecular target: T1, GST-free Syk(6-370) (Homo sapiens, UniProt P43405); assay: Thermal denaturation assay (SYPRO orange); assay type: binding; conditions: Syk(6-370) 2 µM, dose-dependent
T1 construct: Syk 6-370 (GST tag removed by thrombin cleavage) was used; GST (N, cleaved yes); made in house; host or cells: E. coli BL21(DE3)
Description: In this assay, Syk 6-370 (GST tag removed by thrombin cleavage) was used. Thrombin (GE Healthcare cat#270846, reconstituted in PBS to 1 unit/ul) was applied to the GST-Syk 6-370 protein bound to the Glutathione Sepharose beads. The GST-tag was cleaved with 20 unit/1 ml of protein-GST beads in PBS overnight at room temperature. After chromatography and additional cleaning on GST-beads, the purified protein was verified by SDS-PAGE. For thermal denaturation experiments, GST-free Syk(6-370) was used at a final concentration of 2 µM and SYPRO orange (Thermo Scientific, cat# S6650) at a 0.08% (v/v) dilution (from a 5000x stock). Compounds were used at indicated concentrations. Numerous reaction buffers were initially screened, and a final buffer containing 25 mM HEPES (pH 7.5) with 100 mM NaCl was used. Assays were performed in 20 µl volumes, in triplicate, in 384-well plates (Applied Biosystems MicroAmp 384-well clear optical reaction plate, catalogue #4483285). Plates were sealed with Applied Biosystems Optical Adhesive Cover (cat#4360954) and centrifuged for 2 min at 800 × g at room temperature. Thermal denaturation was measured on a Quant Studio 6 Flex Real-time PCR system (Applied Biosystems). […]

CC(C)(O/N=C(\C(=O)N[C@@H]1C(=O)N2C(C(=O)[O-])=C(C[n+]3ccccc3)CS[C@H]12)c1csc(N)n1)C(=O)O [ceftazidime]
integrin α4β1 induced phosphorylation of Syk ([1]; 100 µM loaded by glycerol shock, plated on CS-1, immunoprecipitation and western blot): inhibited
α4β1-induced phosphorylation of Syk (pY352) ([1]; ceftazidime loaded by glycerol shock, indicated doses, cells plated on CS-1): inhibited
α4β1 signaling through Syk ([1]; drug simply added to THP-1 cells, no glycerol loading): negative
effect on melting temperature (Tm) of Syk(6-370) (GST-free Syk(6-370)): decreased
